The record followed here is US20160158184A1, “SELF-EMULSIFYING COMPOSITION OF OMEGA3 FATTY ACID” (priority 2013, published 2016).

The data set can be described thus: Pharmacokinetics in beagles (Test Example 5). The data set is classed as in vivo. More on the design: unit not given beside the values. Particulars: male beagles fasted 18 hours or more, oral, 600 mg of EPA-E, plasma EPA, corrected for pre-dose value. On the procedure: The composition or the capsule prepared was orally administered to 6 male beagles (at the age of 2 to 6 years with the body weight of 8 to 13 kg, 3 Marshall beagles and 3 Nosan beagles) under fasting conditions, and blood EPA concentration was evaluated. The test animals were fasted 18 hours or more before the administration, and each animal was administered with the composition at an amount corresponding to 600 mg of the EPA-E. Blood was collected before the administration, and 0.5, 1, 1.5, 2, 3, 4, 6, 8, and 24 hours after the administration, and plasma was separated to measure plasma EPA concentration by LC/MS/MS (a method of separating a sample by liquid chromatography and separating the resultant components by mass spectrometry for measurement). The control group was administered with the EPA-E stock solution encapsulated in a capsule. […] In the calculation of each parameter, the value was corrected by subtracting the blood EPA concentration before the administration of the composition.

The molecule `CC/C=C\C/C=C\C/C=C\C/C=C\C/C=C\CCCC(=O)OCC` [Comp. Ex. 5, Ethyl eicosapentaenoate ester] came in with an AUC0-2 (0 to 2 hours) of 11.3. For the same molecule, where the note is “0 to 24 hours”, the AUC0-24 is 76.6.
